Consider 97 compounds from ChEMBL document CHEMBL5604063, “ASAP - DENV-2 NS2B-NS3 protease fluorescence dose response” (2024).

The structures appear in SMILES notation. pIC50: −log10 of the molar value. Several values for one entry are separate records, joined by “and”; a condition that tells them apart may be missing. Equal values may be shown once.

Sequence of Genome polyprotein (P29990 1346-1475 limits assumed): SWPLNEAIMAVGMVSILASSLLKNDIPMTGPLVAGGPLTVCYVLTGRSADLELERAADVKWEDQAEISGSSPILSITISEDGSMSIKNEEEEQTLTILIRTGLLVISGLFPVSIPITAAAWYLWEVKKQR
Sequence of Genome polyprotein (P29990 1476-2093 limits assumed): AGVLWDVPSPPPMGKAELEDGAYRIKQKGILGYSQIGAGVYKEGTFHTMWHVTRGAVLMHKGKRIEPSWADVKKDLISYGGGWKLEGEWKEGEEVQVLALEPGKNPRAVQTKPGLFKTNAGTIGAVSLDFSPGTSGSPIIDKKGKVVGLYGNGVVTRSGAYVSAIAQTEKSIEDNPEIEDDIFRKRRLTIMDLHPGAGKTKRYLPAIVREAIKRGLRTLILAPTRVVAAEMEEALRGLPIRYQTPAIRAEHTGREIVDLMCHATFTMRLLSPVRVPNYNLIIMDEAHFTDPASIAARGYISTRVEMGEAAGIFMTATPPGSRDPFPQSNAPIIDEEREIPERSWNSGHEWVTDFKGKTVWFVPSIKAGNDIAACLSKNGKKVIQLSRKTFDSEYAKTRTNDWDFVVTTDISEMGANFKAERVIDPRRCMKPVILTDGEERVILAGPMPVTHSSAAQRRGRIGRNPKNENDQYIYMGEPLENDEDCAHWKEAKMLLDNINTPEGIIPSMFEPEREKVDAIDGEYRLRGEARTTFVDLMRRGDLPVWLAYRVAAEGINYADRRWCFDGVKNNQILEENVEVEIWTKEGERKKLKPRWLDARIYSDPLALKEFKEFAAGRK

The experiment concerns the target Genome polyprotein (dengue virus type 2, UniProt P29990). The class given is functional, Thailand/16681/1984.
What is called pIC50 is −log10 of the IC50, conventionally taken in molar units. With `c1ccc2nc(SCc3cn4ccccc4n3)cnc2c1`, the pIC50 was less than 4.00. Then `c1ccc(C2CCN(Cc3ccc4nccnc4c3)CC2)nc1`, with less than 4.00; and `c1cc2sccc2c(N2CCN(Cc3ccc4cn[nH]c4c3)CC2)n1`, with less than 4.00. Then `O=C(O)c1sc2cccnc2c1Br`, with less than 4.00. Regarding `Brc1cnn(C2CCN(Cc3csnn3)CC2)c1`, the negative-log IC50 (pIC50) is less than 4.00. For `COc1ccc2c(O)nn(S(=O)(=O)c3ccc(C(=O)O)cc3)c2c1` the value was less than 4.00; for `[O-][S@@+](Cc1nc(-c2cccs2)no1)c1cccs1`, less than 4.00.

Take `C[S@@+]([O-])c1nncn1Cc1ccc(Cl)s1`: the pIC50 is less than 4.00. For `Cc1nnc(CSc2ncnc3sccc23)o1` the value was less than 4.00; for `c1nnc(SCCCSc2nncs2)s1`, less than 4.00; for `O=c1ccn(Cc2cc(=O)n3ccccc3n2)c2ccsc12`, less than 4.00. Turning to `Brc1nc(Br)n(Cc2cscn2)n1`, the negative logarithm of the IC50 (pIC50) is less than 4.00. Turning to `Cn1ncnc1Sc1nc(C2CCCC2)ns1`, the pIC50 is less than 4.00. Then `c1ccc(COc2cccc3[nH]cc(CN4CCC(c5cscn5)CC4)c23)cc1`, with less than 4.00. Then `NCc1cccc(NC(=O)[C@@H](NC(=O)OCc2ccccc2)c2cccc(OC[C@H]3CCCO3)c2)c1`, with less than 4.00.

`O=c1c2ccccc2nnn1CSc1nnc(-c2ccccc2)o1` had a negative-log IC50 (pIC50) of less than 4.00.

In turn, `Cn1cc(N2CCN(Cc3c[nH]c4ccccc34)CC2)cn1` showed a pIC50 of less than 4.00. For `[O-][S@@+](Cc1ncccn1)c1ncccc1Br` the value was less than 4.00; for `COc1ccc(F)cc1-c1ccc(S(=O)(=O)Nc2ccc(Cl)cc2C(N)=O)cc1`, 4.55; for `O=c1[nH]c2cccc(N3CCN(Cc4c[nH]c5ccccc45)CC3)c2[nH]1`, less than 4.00. With `CC(=O)N[C@H](C(=O)N[C@H]1C(=O)O[C@H]1C)c1ccc(OCc2ccccc2)cc1`, the pIC50 is less than 4.00.

On to `N#Cc1ccc(OCCn2nnn(-c3ccccc3)c2=O)cc1`, for which the negative logarithm of the IC50 (pIC50) is less than 4.00. Then `O=C(Nc1cc(Cl)cc(C(=O)Nc2ncc3n2CCNC3)c1)OCc1ccccc1`, with less than 4.00; and `NCc1cccc(NC(=O)[C@@H]2[C@@H]3CCCCC[C@@H]3[C@@H]2NC(=O)OCc2ccccc2)c1`, with 4.65. For `N#Cc1ccc(S(=O)(=O)CCn2nc(-c3ccco3)oc2=O)cc1` the value was less than 4.00; for `NC(=O)c1cnccc1N1CCN(Cc2c[nH]c3ccccc23)CC1`, less than 4.00. For `c1ccc(OC2CCN(Cc3c[nH]c4ccccc34)CC2)cc1` the value was less than 4.00; for `NCc1cccc(NC(=O)[C@@H](NC(=O)OCc2ccccc2)c2cccc(OCC3CCC3)c2)c1`, 4.36. For `CN(C)Cc1nnc(NC(=O)[C@@H](NC(=O)OCc2ccccc2)c2ccc(OCc3ccccc3)cc2)s1`, the negative-log IC50 (pIC50) was less than 4.00. Then `C[C@H]1CC[C@@](Cc2nc3ccccc3[nH]2)(C(=O)Nc2cccc(CN)c2)CC1`, with less than 4.00; and `CN(C)Cc1csc(NC(=O)[C@@H](NC(=O)OCc2ccccc2)c2ccc(OCc3ccccc3)cc2)n1`, with less than 4.00. For `Cc1nc(COc2ccc([C@@H](NC(=O)OCc3ccccc3)C(=O)Nc3cccc(CN)c3)cc2)cs1` the value was less than 4.00; for `c1ccc2c(CN3CCN(c4ccncc4)CC3)c[nH]c2c1`, less than 4.00.

For the compound `O=C(Nc1cc(Cl)cc(C(=O)Nc2nc3c(s2)CCNC3)c1)OCc1ccccc1`, the negative-log IC50 (pIC50) was less than 4.00. Then `COc1c(C)cc(C(=O)Nc2cccc(CN)c2)cc1NC(=O)OCc1ccccc1`, with less than 4.00; and `NCc1cccc(NC(=O)Cc2cc(Cl)cc(NC(=O)OCc3ccccc3)c2)c1`, with 4.07. For `COc1ccc(CN(C)C)cc1NC(=O)[C@@H](NC(=O)OCc1ccccc1)c1ccc(OCc2ccccc2)cc1` the value was less than 4.00.

Consider `Nc1ccc2ccc(B(O)O)cc2c1`, for which the pIC50 is less than 4.00. For `CC(C)(C)OC(=O)Nc1cccc2[nH]cc(CN3CCC(c4cscn4)CC3)c12` the value was less than 4.00; for `COc1ccc(F)cc1-c1ccc(S(=O)(=O)Nc2cc(Cl)cc(C(=O)O)c2)cc1`, 4.05. Then `c1ccc(COc2ccc3[nH]cc(CN4CCC(c5cscn5)CC4)c3c2)cc1`, with less than 4.00; and `NC(=O)c1cc(Cl)ccc1NS(=O)(=O)c1ccc(-c2ccc(F)cc2)cc1`, with 4.48; and `NCc1cccc(NC(=O)[C@@H](NC(=O)OCc2ccccc2)c2ccc(OC[C@H]3CCCCO3)cc2)c1`, with less than 4.00. Then `O=C(Nc1cc(Cl)cc(C(=O)Nc2n[nH]c3c2CNC3)c1)OCc1ccccc1`, with 4.57; and `Brc1cccc2cn(Cc3ncccn3)nc12`, with less than 4.00. `c1ccc2[nH]c(CC3CCN(Cc4nccs4)CC3)nc2c1` gave a pIC50 of less than 4.00. Then `Cn1c(Sc2nc3ccccc3o2)nc2sccc2c1=O`, with less than 4.00; and `O=C(Nc1cc(Cl)cc(C(=O)Nc2n[nH]c3c2CNC32CC2)c1)OCc1ccccc1`, with 4.17. For `O=C(Nc1cc(Cl)cc(C(=O)Nc2cccc(CO)c2)c1)OCc1ccccc1` the value was less than 4.00; for `CN1CCC[C@H]1COc1cccc([C@@H](NC(=O)OCc2ccccc2)C(=O)Nc2cccc(CN)c2)c1`, less than 4.00.

`Cc1ccc(CN)cc1-c1cccc([C@H](NC(=O)OCc2ccccc2)C(=O)Nc2cccc(CN)c2)c1`: the pIC50 was 4.20. With `O=C(NCc1ccco1)c1csc(Br)c1`, the negative-log IC50 (pIC50) was less than 4.00. For `Cc1cc(NC(=O)OCc2ccccc2)cc(C(=O)Nc2cccc(CN)c2)c1C` the value was less than 4.00; for `COc1cc(Br)ccc1[C@@H](NC(=O)OCc1ccccc1)C(=O)Nc1cccc(CN)c1`, 4.08. As to `CN(C)Cc1ccc(N2CCN(Cc3c[nH]c4ccccc34)CC2)nc1`, the negative-log IC50 (pIC50) was less than 4.00.

The compound `O=C(NCc1nccs1)c1sccc1Cl` gave a pIC50 of less than 4.00. For `CC(C)(C)c1cc(CN2CCC(c3cscn3)CC2)n[nH]1` the value was less than 4.00. Regarding `CCNC(=O)Nc1cc(Cl)cc(C(=O)Nc2cccc(CN)c2)c1`, the pIC50 was less than 4.00. Then `Cc1ccc(NC(=O)OC(C)(C)C)c2[nH]cc(CN3CCC(c4cscn4)CC3)c12`, with less than 4.00; and `O=C(Nc1cc(Cl)cc(C(=O)Nc2cnc3n2CCNC3)c1)OCc1ccccc1`, with less than 4.00; and `NCc1cccc(NC(=O)[C@@H]2CCC[C@@H](NC(=O)OCc3ccccc3)C2)c1`, with less than 4.00. For `c1ccc(CC2CCN(Cc3c[nH]c4ccccc34)CC2)cc1` the value was less than 4.00. For `O=C(N[C@@H](C(=O)Nc1n[nH]c2c1CNC21CC1)c1ccc(OCc2ccccc2)cc1)OCc1ccccc1` the value was less than 4.00. The compound `O=c1ccc(-n2cncn2)nn1CC=Cc1ccccc1` had a pIC50 of less than 4.00.

On to `CCSc1nnc(SCCn2nc3ccccn3c2=O)s1`, for which the pIC50 was less than 4.00. Then `Cn1nc(NC(=O)[C@@H](NC(=O)OCc2ccccc2)c2ccc(OCc3ccccc3)cc2)c2c1CNC2`, with less than 4.00. Then `O=c1ccccn1-c1ncc(Br)cn1`, with less than 4.00; and `O=C(Nc1cc(Cl)cc(C(=O)Nc2cc3n(n2)CCNC3)c1)OCc1ccccc1`, with less than 4.00. Then `Clc1cc(Cl)c2c(CN3CCC(c4cscn4)CC3)c[nH]c2c1`, with less than 4.00; and `O=c1c2cccn2cnn1Cc1cnc(Cl)s1`, with less than 4.00. Consider `O=c1c2ccccc2ncn1CCCn1cnc2ccccc2c1=O`, for which the negative logarithm of the IC50 (pIC50) is less than 4.00. Then `NCc1cccc(NC(=O)c2cc(Cl)cc(CNC(=O)OCc3ccccc3)c2)c1`, with 4.07. For `NCc1cccc(C(=O)Nc2cc(Cl)cc(NC(=O)OCc3ccccc3)c2)c1` the value was 4.17; for `c1ccc2c(CN3CC(c4cscn4)C3)c[nH]c2c1`, less than 4.00; for `c1cc(-c2cc(CN3CCC(c4cscn4)CC3)n[nH]2)ccn1`, less than 4.00. For `NCc1cccc(NC(=O)[C@@H](NC(=O)OCc2ccccc2)c2ccc(Br)c(Cl)c2)c1` the value was 5.04 and 5.08; for `COC(=O)c1cc2scc(Br)c2[nH]1`, less than 4.00; for `C1=C(c2cccnc2)CN(Cc2c[nH]c3ccccc23)CC1`, less than 4.00.

`O=C(O)c1cc(Cl)cc(NS(=O)(=O)c2ccc(-c3ccc(F)cc3)cc2)c1` had a pIC50 of 4.04.

`O=C(Nc1cc(Cl)cc(C(=O)Nc2nc3c(s2)CNC3)c1)OCc1ccccc1` gave a pIC50 of less than 4.00. Then `c1csc(CSc2nnc(Cn3cncn3)o2)c1`, with less than 4.00; and `O=C1O[C@H]2CCN(Cc3ccc(OCc4ccccc4)cc3)C[C@H]12`, with less than 4.00. For `Cc1[nH]c2ccccc2c1CN1CCC(c2c[nH]c3ncccc23)CC1` the value was less than 4.00; for `c1cnc2[nH]cc(C3CCN(Cc4c[nH]c5cnccc45)CC3)c2c1`, less than 4.00. For `O=C(N[C@@H](C(=O)Nc1ncc([C@H]2CCCN2)s1)c1ccc(OCc2ccccc2)cc1)OCc1ccccc1` the value was less than 4.00. `NCc1cccc(S(=O)(=O)Cc2cc(Cl)cc(NC(=O)OCc3ccccc3)c2)c1`: the pIC50 was less than 4.00. `NCc1cccc(NC(=O)c2cc(N)cc(NC(=O)OCc3ccccc3)c2)c1` showed a pIC50 of less than 4.00. Then `CN1CCc2nc(NC(=O)[C@@H](NC(=O)OCc3ccccc3)c3ccc(OCc4ccccc4)cc3)sc2C1`, with less than 4.00; and `CCN1CC[C@@H](COc2ccc([C@@H](NC(=O)OCc3ccccc3)C(=O)Nc3cccc(CN)c3)cc2)C1`, with less than 4.00. As to `c1csc(-c2nnc(Sc3ncnc4sccc34)o2)c1`, the negative-log IC50 (pIC50) was less than 4.00. In the case of `Cn1nc(NC(=O)c2cc(Cl)cc(NC(=O)OCc3ccccc3)c2)c2c1CNC2`, the negative-log IC50 (pIC50) is 4.05.

`c1ccc([C@H](NCc2c[nH]c3ccccc23)c2cccnc2)cc1` had a negative logarithm of the IC50 (pIC50) of less than 4.00. `CC[C@@H](NCc1c[nH]c2ccccc12)c1cccnc1` gave a negative logarithm of the IC50 (pIC50) of less than 4.00. In turn, `NC[C@@H]1CN(c2cc(N3CC[C@H](N)C3)cc3c2COB3O)C(=O)O1` gave a negative-log IC50 (pIC50) of less than 4.00. For `O=C(O)c1cc(Cl)ccc1NS(=O)(=O)c1ccc(Nc2ccccc2F)nc1` the value was 4.36; for `NCc1cccc(NC(=O)C[C@@H](NC(=O)OCc2ccccc2)c2ccc(Cl)c(Br)c2)c1`, 4.91; for `c1ccc([C@@H]2C[C@H]3C[C@@H]2C[C@H]3NCc2n[nH]c3ccccc23)cc1`, less than 4.00.
